Test results reported in PMC12091851, “Replacing a Cereblon Ligand by a DDB1 and CUL4 Associated Factor 11 (DCAF11) Recruiter Converts a Selective Histone Deacetylase 6 PROTAC into a Pan‐Degrader” (Chemmedchem, 2025).
Like-named read-outs stand apart in the source and are kept apart here.

What was measured:
MM.1S cells [1] = experiment: CellTiter-Glo cell viability assay; assay type: cell-based, human; details: 72 h; for EC50: Homo sapiens, MM1.S
Method: For this purpose, the dilution series were prepared in 200-fold concentration in DMSO and further diluted to 10-fold concentration in medium. The final DMSO concentration was 0.5%. The toxicity of compounds was determined after 72 h using the CellTiter-Glo 2.0 Cell Viability Assay (Promega, Madison, WI, USA, #G9242) according to the manufacturer´s protocol. Subsequently, the luminescence was measured using a Tecan Spark (Tecan Group AG, Maennedorf, Swiss) and the half maximal effective concentration (EC50) was determined by plotting dose response curves and nonlinear regression with GraphPad Prism (GraphPad Software, San Diego, CA, USA). […] Cellular HDAC Inhibition Assay […] with minor changes. […] The DMSO-stock solutions were used to perform a serial dilution in DMSO. […] 10 µL of the substrate solution was added and incubated for 3 h under cell culture conditions. […] S8

HDAC1 = HDAC1 (Homo sapiens, UniProt Q13547); experiment: Simple Western immunoassay, HDAC1 levels in MM.1S cell lysates; assay type: cell-based; design: endogenous in cells; host or cells: MM.1S; details: MM.1S cells, 10 μM, 24 h
Chain of HDAC1 (Q13547 whole entry): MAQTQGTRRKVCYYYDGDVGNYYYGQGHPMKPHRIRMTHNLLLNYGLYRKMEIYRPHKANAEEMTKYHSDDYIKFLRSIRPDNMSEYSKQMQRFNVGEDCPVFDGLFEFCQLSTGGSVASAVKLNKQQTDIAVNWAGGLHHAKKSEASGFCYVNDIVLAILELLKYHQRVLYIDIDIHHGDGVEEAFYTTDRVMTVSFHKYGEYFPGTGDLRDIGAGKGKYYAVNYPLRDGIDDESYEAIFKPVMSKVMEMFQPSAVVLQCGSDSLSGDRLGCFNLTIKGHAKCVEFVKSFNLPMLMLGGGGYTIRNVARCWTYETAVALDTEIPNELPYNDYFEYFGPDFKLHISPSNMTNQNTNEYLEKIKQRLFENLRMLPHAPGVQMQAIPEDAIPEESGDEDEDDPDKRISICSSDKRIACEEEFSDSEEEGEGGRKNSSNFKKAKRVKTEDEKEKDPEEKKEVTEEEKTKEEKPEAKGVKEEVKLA
Method: Figure 3 Initial degradation screening of HDAC1 and 6 by DCAF11‐recruiting PROTACs by Simple Western™ immunoassay analysis of MM.1S cell lysates. MM.1S cells were treated with the indicated compound (10 μM) or vehicle (DMSO) for 24 h. […] Bottom: Representative images from a total of n=3 biological replicates, labeled with spacer type; w/o: without spacer.
2. Biological Experiments
No unexpected or unusually high safety hazards were encountered.
The human multiple myeloma cell line MM.1S (CRL-2974) was obtained from American Type Culture Collection (ATCC, Manassas, VA, USA). The semi-adherent cells were cultivated in RPMI 1640 medium (Catalog#21875-034, Gibco, ThermoFisher Scientific Inc., Waltham, MA, USA) supplemented with 10% FBS (PAN Biotech GmbH; Aidenbach, Germany), 100 IU/mL penicil lin, 0.1 mg/mL streptomycin (PAN Biotech GmbH) and 1 mM sodium pyruvate (ThermoFisher Scientific Inc.). […]
(PAN Biotech GmbH). All cells were cultured at 37 °C in a 5% CO2 atmosphere. Incubation times, as part of assay protocols, were performed under these conditions as well. The semi-adherent MM.1S were detached mechanically by using a cell scraper and the adhered […] were trypsinased by trypsin/EDTA (0.05%/0.02% in DPBS, PAN Biotech GmbH) whereas the U-87MG were detached by […]
2.2. Simple Western™ Immunoassay
For the cell lysates, MM.1S (0.5 × 10^6 cells/mL) or U-87MG (0.18 × 10^6 cells/mL) cells were seeded and incubated with the indicated concentration of compound or vehicle (DMSO) for the given time. The adherent cells were cultured for 24 h under cell culture conditions for attachment before treatment. Cell lysis was performed with Cell Extraction Buffer (10 mM Tris, pH 7.4, 100 mM NaCl, 1 mM EDTA, […]
SDS, 0.5% deoxycholate; Catalog# FNN0011, Thermo Fisher Scientific Inc., Waltham, MA, USA) with addition of Halt Protease Inhibitor Cocktail (100×) (Catalog# 78429, Life Technologies GmbH, Carlsbad, CA, USA) and phenylmethanesulfonyl fluoride (Catalog# 10837091001, Sigma-Aldrich, St.
Louis, MO, USA) according to manufacturer´s instructions. Protein content was determined by Pierce™ BCA Protein Assay Kit (Catalog# 23225, Thermo Fisher Scientific Inc.) according to manufacturer´s guidelines. Cell lysates were diluted to a final concentration of 1 mg/mL and denatured according to manufacturer’s guidelines. Anti-HDAC1 (Catalog# 5356S, Cell Signaling Technology, Denver, MA, USA), anti-HDAC6 (Catalog#7558S, Cell Signaling Technology) and anti-GAPDH (Catalog# 2118S, […]
Fluorescence Separation 8x25 Capillary Cartridges (Catalog# SM-FL004-1, Protein Simple, Bio-Techne, Minneapolis, MN, USA) were used for separation and the Anti-Mouse Detection Module (Catalog# DM-002, Protein Simple) was used for detection with addition of 20x Anti-Rabbit HRP […]
Conjugate (Catalog# 043-426, Protein Simple) according to manufacturer´s instructions. The assay was performed with the Jess Simple Western System (catalog# 004-650, Protein Simple), according to manufacturer´s settings. Evaluation and quantification was performed with the compass software (6.2.0, Protein Simple). GraphPad Prism (GraphPad Software, San Diego, CA, USA) was used for normalization, statistical analysis and bar graph creation. Significance testing was performed with a one-way analysis of variance (ANOVA). […]
of each mean compared to a reference mean value. […]
AMC (Catalog# 233691-67-3, BLD pharma) was prepared with and without IGEPAL CA-630 (0.5%, Catalog# J61055, Alfa Aesar). 10 µL of the substrate solution was added and incubated for 3 h under cell culture conditions. The reaction was stopped with 100 µL of stop solution (50 mM Tris-HCl, […]
Trypsin) and incubated for 1.5 h under cell culture conditions. The fluorescence signal was measured by a FLUOstar OPTIMA microplate reader (BMG labtech, Ortenburg, Germany) at excitation of λ = 355 nm and emission of λ = 460 nm. All Compounds were tested in two independent experiments in duplicates and IC50 was determined by nonlinear regression with GraphPad Prim.

MM.1S cells [2] = experiment: Cell cycle analysis by PI staining and flow cytometry; assay type: cell-based, human; details: 10 μM, 48 h
Method: GraphPad Prism (GraphPad Software). […]
Biotech), resuspended in 1 mL EtOH/D PBS (7/3 v/v), and fixed for 30 min at 4 °C. The samples were rehydrated with DPBS and treated with 5 µg /mL RNAse ( Catalog# EN0531 , ThermoFisher Scientific Inc.) for 15 min at room temperature. The staining was performed with 3 µM propidium iodide (in DPBS) for 15 min at room temperature and analyzed by flow cytometry ( Guava easyCyteTM, Luminex, […]
Lakes, NJ, USA), using the Watson Pragmatic algorithm.[6] GraphPad Prism (GraphPad Software) was used for normalization, statistical analysis, and bar graph creation. Significance testing was performed with a one-way analysis of variance (ANOVA). Dunnett’s post-hoc test was employed to obtain […]
Final DMSO concentration was 0.1%.
Staining was performed with
Fluorescence was measured by flow cytometry (Guava® easyCyteTM, Luminex, Austin, Texas). GraphPad Prism (GraphPad Software) was used for normalization, statistical analysis, and bar graph creation. Significance testing was performed with a one-way analysis of variance (ANOVA).
Subsequently, cells were harvested and […]
After 30 minutes of incubation at […]
Dunnett’s post-hoc test was employed

MDA-MB-231 cells = experiment: Clonogenic growth assay; assay type: cell-based, human; details: 10 μM for 48 h, nine days of growth
Method: Figure 9 Clonogenic growth assay of DCAF11‐recruiting PROTACs. MDA‐MB‐231 cells were treated with 10 μM of the respective compound or vehicle (DMSO) for 48 hours. (A) Representative images of crystal violet stained colonies after nine days of growth. (B) Quantification of counted colonies, presented as mean ± standard deviation of three biological replicates, each performed in triplicates. Significance of quantification compared to vehicle: ns=p≥0.05; **=p≤0.01 and ***=p≤0.001. […]
Subsequently, cells were harvested and
plated in 6-well plates at a density of 750 cells per well in triplicates. The cell culture medium was
changed after five days. Nine days after plating, the colonies were carefully washed with 500 µL DPBS
and stained with 500 µL crystal violet solution (0.5% in methanol). After 30 minutes of incubation at
room temperature, the wells were gently rinsed with deionized water. After counting the formed
colonies, GraphPad Prism (GraphPad Software) was used for bar graph creation. Significance testing
was performed with a one-way analysis of variance (ANOVA). Dunnett’s post-hoc test was employed
to obtain significance levels of each mean compared to a reference mean value.

[3] = MM.1S cells, n.e.: no effect (≤25% effect up to 50 μM), read-out: EC50 antiproliferative activity
[4] = MM.1S cells, n.e.: no effect (≤25% effect up to 50 μM)

EC50 (MM.1S cells [1]; [3]) [µM] | SMILES | other results
34 ± 6 | O=C(CCCCCCNC(=O)c1ccc(NC(=O)c2ccc(N(C(=O)CCl)C(C(=O)NCc3ccccc3)c3ccc(Cl)c(Cl)c3)cc2)cc1)NO (stereo not shown) [Compound 1a] | EC50 antiproliferative activity (MM.1S cells [1]; [4]): diminished antiproliferative activity
18 ± 3 | O=C(CCCCCCNC(=O)c1ccc(NC(=O)[C@H]2CC[C@H](CN(C(=O)CCl)C(C(=O)NCc3ccccc3)c3ccc(Cl)c(Cl)c3)CC2)cc1)NO (stereo partly shown) [Compound 1b] | EC50 antiproliferative activity (MM.1S cells [1]; [4]): diminished antiproliferative activity
6.2 ± 0.7 | O=C(CCCCCCNC(=O)c1ccc(NC(=O)CCOCCOCCN(C(=O)CCl)C(C(=O)NCc2ccccc2)c2ccc(Cl)c(Cl)c2)cc1)NO (stereo not shown) [Compound 1c] | –
6.9 ± 0.6 | O=C(CCCCCCNC(=O)c1ccc(NC(=O)CCOCCOCCOCCN(C(=O)CCl)C(C(=O)NCc2ccccc2)c2ccc(Cl)c(Cl)c2)cc1)NO (stereo not shown) [Compound 1d] | –
7.3 ± 0.5 | O=C(CCCCCCNC(=O)c1ccc(NC(=O)CCOCCOCCOCCOCCN(C(=O)CCl)C(C(=O)NCc2ccccc2)c2ccc(Cl)c(Cl)c2)cc1)NO (stereo not shown) [Compound 1e] | reduction of HDAC1 levels (HDAC1): 51%
19 ± 3 | O=C(CCCCCCNC(=O)c1ccc(NC(=O)CN(C(=O)CCl)C(C(=O)NCc2ccccc2)c2ccc(Cl)c(Cl)c2)cc1)NO (stereo not shown) [Compound 1f] | –
16 ± 2 | O=C(CCCCCCNC(=O)c1ccc(NC(=O)CCCN(C(=O)CCl)C(C(=O)NCc2ccccc2)c2ccc(Cl)c(Cl)c2)cc1)NO (stereo not shown) [Compound 1g] | –
18 ± 7 | O=C(CCCCCCNC(=O)c1ccc(NC(=O)CCCCCN(C(=O)CCl)C(C(=O)NCc2ccccc2)c2ccc(Cl)c(Cl)c2)cc1)NO (stereo not shown) [Compound 1h] | reduction of HDAC1 levels (HDAC1): did not reduce HDAC1 levels
12 ± 2 | O=C(CCCCCCNC(=O)c1ccc(NC(=O)CCCCCCCN(C(=O)CCl)C(C(=O)NCc2ccccc2)c2ccc(Cl)c(Cl)c2)cc1)NO (stereo not shown) [Compound 1i] | –
– | O=C(CCCCCCNC(=O)c1cnc(N(c2ccccc2)c2ccccc2)nc1)NO [Ricolinostat, ricolinostat, reference compound] | effect on cell cycle phases (MM.1S cells [2]): stronger effects on the different phases of the cell cycle; reduction of colonies (clonogenic growth) (MDA-MB-231 cells): less pronounced and not significant; EC50 (MM.1S cells [1]; read-out: EC50 MM.1S): 3 ± 0.6 µM
